Each structure is given as a SMILES string.

The assay concerns Coptotermes formosanus Shiraki. Kind of assay: Test Example 1: termite-killing test on treated filter paper. Type of assay: in vivo. Conditions: mortality class; 1 ml of a 500 ppm solution on filter paper, seven days after inoculation, triplicate group of 10 insects. The protocol: A filter paper was spread in a glass dish having a diameter of 9 cm, onto which was dropped 1 ml of a 500 ppm solution of the ant controller of the present invention. Then, the filter paper was inoculated with Coptotermes formosanus Shiraki. Seven days after the inoculation, percentage of dead insects was investigated, from which mortality was calculated. The test was carried out with triplicate group of 10 insects.
On to `COC(C(=NNC(=O)Nc1ccc(Cl)cc1)c1ccccc1)c1ccccc1` (racemic) [Compound 66], for which the Termite-killing effect result was “A (100)”.

Take `N#Cc1ccc(CN(NCC(=O)Nc2ccc(Cl)cc2)c2cccc(F)c2)cc1` [Compound 153]: the Termite-killing effect result is listed as “A (100)”.

`O=C(NNC(Cc1ccc(Br)cc1)c1ccccc1)Nc1ccc(Cl)cc1` (stereo not drawn) [Compound 110]: the Termite-killing effect entry is “B (99-90)”.

Take `O=C(NN=C(Cc1ccc([N+](=O)[O-])cc1)c1ccccc1)Nc1ccc(Cl)cc1` [Compound 10]: the Termite-killing effect result is listed as “A (100)”.

Take `Cc1cccc(N(Cc2ccc(C#N)cc2)N=CC(=O)Nc2ccc(OC(F)(F)F)cc2)c1` [Compound 137]: the Termite-killing effect entry is listed as “A (100)”.

With `N#Cc1ccc(CC(=NNC(=O)Nc2ccc(OC(F)(F)F)cc2)c2cccc(C(F)(F)F)c2)cc1` [Compound 82], the Termite-killing effect result is on record as “B (99-90)”.

For the compound `N#Cc1ccc(CC(=NNC(=O)Nc2ccc(SC(F)(F)F)cc2)c2cccc(C(F)(F)F)c2)cc1` [Compound 80], the Termite-killing effect entry is listed as “A (100)”.

For `O=C(CNN(Cc1ccccc1)c1ccccc1)Nc1ccc(OC(F)(F)F)cc1` [Compound 143], the Termite-killing effect result is given as “C (89-80)”.

Consider `N#Cc1cccc(CC(NNC(=O)Nc2ccc(OC(F)(F)F)cc2)c2ccccc2)c1` (stereo not drawn) [Compound 112], for which the Termite-killing effect result was “A (100)”.

Regarding `N#Cc1ccc(CC(NNC(=O)Nc2ccc(OC(F)(F)F)cc2)c2cccc(C(F)(F)F)c2)cc1` (single isomer, unassigned) [Compound 117], the Termite-killing effect entry is “A (100)”.

Regarding `N#Cc1ccc(CC(c2cccc(Cl)c2)N(NC(=O)Nc2ccc(OC(F)(F)F)cc2)C(=O)c2ccccc2)cc1` (stereo not drawn) [Compound 102], the Termite-killing effect result was “A (100)”.

Consider `N#Cc1ccccc1CN(N=CC(=O)Nc1ccc(OC(F)(F)F)cc1)c1cccc(Cl)c1` [Compound 142], for which the Termite-killing effect entry is “C (89-80)”.

`N#Cc1ccc(CC(NNC(=O)Nc2ccc(OC(F)(F)F)cc2)c2cccc(C(F)(F)F)c2)cc1` (single isomer, unassigned) [Compound 118]: the Termite-killing effect entry is “D (79-50)”.

In the case of `O=[N+]([O-])c1ccc(CC(=NNC(=S)Nc2ccc(OC(F)(F)F)cc2)c2ccccc2)cc1` [Compound 13], the Termite-killing effect entry is given as “A (100)”.

Regarding `N#Cc1ccc(CC(NNC(=O)Nc2ccc([S+]([O-])C(F)(F)F)cc2)c2cccc(F)c2)cc1` (stereo not drawn) [Compound 116], the Termite-killing effect result is recorded as “B (99-90)”.

For `O=C(NNC(Cc1ccccc1)c1ccccc1)Nc1ccc(OC(F)(F)F)cc1` (racemic) [Compound 85], the Termite-killing effect entry is on record as “C (89-80)”.

Take `CC(C)OC(C(=NNC(=O)Nc1ccc(Cl)cc1)c1ccccc1)c1ccccc1` (racemic) [Compound 68]: the Termite-killing effect result is recorded as “A (100)”.

For the compound `N#Cc1ccc(CC(=NNC(=O)Nc2ccc(Cl)cc2)c2cccc(Br)c2)cc1` [Compound 26], the Termite-killing effect entry was “A (100)”.

`O=C(NNC(Cc1ccc(Cl)cc1)c1cccc(Cl)c1)Nc1ccc(OC(F)(F)F)cc1` (racemic) [Compound 90]: the Termite-killing effect entry is listed as “A (100)”.

Consider `N#Cc1ccc(CC(=NNC(=O)Nc2ccc([S+]([O-])C(F)(F)F)cc2)c2cccc(Cl)c2)cc1` (stereo not drawn) [Compound 79], for which the Termite-killing effect entry is listed as “B (99-90)”.

As for `N#Cc1ccc(CC(=NNC(=O)Nc2ccc(OC(F)(F)F)cc2)c2cccc(F)c2)cc1` [Compound 35], the Termite-killing effect result was “A (100)”.

In the case of `CCNC(=O)N(NC(=O)Nc1ccc(OC(F)(F)F)cc1)C(Cc1ccc(C#N)cc1)c1cccc(Cl)c1` (stereo not drawn) [Compound 103], the Termite-killing effect entry is given as “A (100)”.

Turning to `O=C(NN=C(Cc1ccc(Cl)cc1)c1cccc(F)c1)Nc1ccc(OC(F)(F)F)cc1` [Compound 33], the Termite-killing effect result was “C (89-80)”.

As for `O=C(NN=C(Cc1ccccc1)c1cccc(Br)c1)Nc1ccc(Cl)cc1` [Compound 24], the Termite-killing effect result is given as “C (89-80)”.

Turning to `CC(C(=NNC(=O)Nc1ccc(OC(F)(F)F)cc1)c1ccccc1)c1ccc(Cl)cc1` (stereo not drawn) [Compound 54], the Termite-killing effect entry is “A (100)”.

For `N#Cc1ccc(CC(NNC(=O)Nc2ccc(SC(F)(F)F)cc2)c2cccc(C(F)(F)F)c2)cc1` (stereo not drawn) [Compound 97], the Termite-killing effect result was “A (100)”.

In the case of `N#Cc1ccc(CC(=NNC(=S)Nc2ccc(OC(F)(F)F)cc2)c2ccccc2)cc1` [Compound 7], the Termite-killing effect result was “A (100)”.

Consider `O=C(C=NN(Cc1ccc(Cl)cc1)c1cccc(Cl)c1)Nc1ccc(OC(F)(F)F)cc1` [Compound 127], for which the Termite-killing effect entry is on record as “A (100)”.

Regarding `O=C(NN=C(Cc1ccc([N+](=O)[O-])cc1)c1ccccc1)Nc1ccc(OC(F)(F)F)cc1` [Compound 12], the Termite-killing effect result was “A (100)”.

For `N#Cc1ccc(CC(NNC(=O)Nc2ccc([S+]([O-])C(F)(F)F)cc2)c2cccc(C(F)(F)F)c2)cc1` (stereo not drawn) [Compound 119], the Termite-killing effect entry is listed as “A (100)”.

On to `FC(F)(F)Oc1ccc(NC(=S)NNC(Cc2ccc(Cl)cc2)c2ccccc2)cc1` (stereo not drawn) [Compound 98], for which the Termite-killing effect entry was “A (100)”.

For the compound `Cc1cccc(N(Cc2ccc(C#N)cc2)NCC(=O)Nc2ccc(Cl)cc2)c1` [Compound 155], the Termite-killing effect entry is listed as “A (100)”.

With `N#Cc1ccc(CC(NNC(=O)Nc2ccc([S+]([O-])C(F)(F)F)cc2)c2cccc(Cl)c2)cc1` (stereo not drawn) [Compound 93], the Termite-killing effect result is reported as “D (79-50)”.

Consider `N#Cc1ccc(CC(=NNC(=O)Nc2ccc([S+]([O-])C(F)(F)F)cc2)c2cccc(Br)c2)cc1` (stereo not drawn) [Compound 29], for which the Termite-killing effect entry is listed as “C (89-80)”.

Consider `N#Cc1ccc(CC(NNC(=O)Nc2ccc(OC(F)(F)F)cc2)c2cccc(Cl)c2)cc1` (stereo not drawn) [Compound 91], for which the Termite-killing effect entry is reported as “A (100)”.

Consider `CC(C(=NNC(=O)Nc1ccc(Cl)cc1)c1cccc(Cl)c1)c1ccc(C#N)cc1` (stereo not drawn) [Compound 55], for which the Termite-killing effect result is “A (100)”.

Regarding `Cc1cccc(C(Cc2ccc(C#N)cc2)=NNC(=O)Nc2ccc(Cl)cc2)c1` [Compound 40], the Termite-killing effect result is recorded as “D (79-50)”.

With `N#Cc1ccc(CC(=NNC(=O)Nc2ccc(Cl)cc2)c2cccc(Cl)c2)cc1` [Compound 17], the Termite-killing effect result is given as “A (100)”.

As to `O=C(C=NN(Cc1ccc([N+](=O)[O-])cc1)c1cccc(Cl)c1)Nc1ccc(Cl)cc1` [Compound 128], the Termite-killing effect entry is “A (100)”.

Take `N#Cc1ccc(CC(=NNC(=O)Nc2ccc(Cl)cc2)c2cccc(C(F)(F)F)c2)cc1` [Compound 83]: the Termite-killing effect entry was “D (79-50)”.

On to `COC(C(=NNC(=O)Nc1ccc(OC(F)(F)F)cc1)c1ccccc1)c1ccccc1` (racemic) [Compound 67], for which the Termite-killing effect entry is “A (100)”.

As to `O=C(NN=C(c1ccccc1)C(O)c1ccccc1)Nc1ccc(OC(F)(F)F)cc1` (stereo not drawn) [Compound 58], the Termite-killing effect result was “A (100)”.

`O=C(NN=C(Cc1ccccc1)c1cccc(C(F)(F)F)c1)Nc1ccc(OC(F)(F)F)cc1` [Compound 43]: the Termite-killing effect entry is on record as “A (100)”.

Take `CN(C(=O)NN=C(Cc1ccccc1)c1ccccc1)c1ccc(OC(F)(F)F)cc1` [Compound 47]: the Termite-killing effect entry is recorded as “A (100)”.

For the compound `O=C(NNC(Cc1ccc(Cl)cc1)c1cccc(F)c1)Nc1ccc(OC(F)(F)F)cc1` (racemic) [Compound 89], the Termite-killing effect entry was “B (99-90)”.

`Cc1cccc(N(Cc2ccc(C#N)cc2)N=CC(=O)Nc2ccc(Cl)cc2)c1` [Compound 136]: the Termite-killing effect entry is “A (100)”.

As to `O=[N+]([O-])c1ccc(CC(=NNC(=S)Nc2ccc(Cl)cc2)c2ccccc2)cc1` [Compound 11], the Termite-killing effect result is “A (100)”.

As for `N#Cc1ccc(CC(NNC(=O)Nc2ccc(OC(F)(F)F)cc2)c2cccc(F)c2)cc1` (stereo not drawn) [Compound 114], the Termite-killing effect entry is “B (99-90)”.

Regarding `N#Cc1ccc(CN(NCC(=O)Nc2ccc(Cl)cc2)c2cccc(Cl)c2)cc1` [Compound 151], the Termite-killing effect result was “C (89-80)”.

For `CC(C(=NNC(=O)Nc1ccc(Cl)cc1)c1ccccc1)c1ccccc1` (racemic) [Compound 64], the Termite-killing effect result is reported as “A (100)”.

As to `CC(C(=NNC(=O)Nc1ccc(OC(F)(F)F)cc1)c1ccccc1)c1ccccc1` (stereo not drawn) [Compound 52], the Termite-killing effect result is listed as “A (100)”.

With `O=C(NNC(Cc1ccc(Cl)cc1)c1ccccc1)Nc1ccc(OC(F)(F)F)cc1` (racemic) [Compound 86], the Termite-killing effect result is reported as “A (100)”.

As to `O=C(NN=C(Cc1ccccc1)c1cccc(F)c1)Nc1ccc(Cl)cc1` [Compound 31], the Termite-killing effect result is on record as “A (100)”.

As for `O=C(NN=C(c1ccccc1)C(O)c1ccc(Cl)cc1)Nc1ccc(OC(F)(F)F)cc1` (stereo not drawn) [Compound 60], the Termite-killing effect entry is recorded as “C (89-80)”.

In the case of `N#Cc1ccc(CN(NCC(=O)Nc2ccc(Cl)cc2)c2ccccc2)cc1` [Compound 145], the Termite-killing effect result is “A (100)”.

`O=C(NNC(Cc1ccccc1)c1ccccc1)Nc1ccc(Cl)cc1` (racemic) [Compound 84]: the Termite-killing effect result is listed as “A (100)”.

For `O=C(CNN(Cc1ccc(Cl)cc1)c1cccc(Cl)c1)Nc1ccc(OC(F)(F)F)cc1` [Compound 148], the Termite-killing effect entry is listed as “A (100)”.

For `N#Cc1ccc(CC(NNC(=O)Nc2ccc(OC(F)(F)F)cc2)c2cccc(Br)c2)cc1` (stereo not drawn) [Compound 95], the Termite-killing effect result was “A (100)”.

Take `N#Cc1ccc(CC(=NNC(=O)Nc2ccc([S+]([O-])C(F)(F)F)cc2)c2cccc(C(F)(F)F)c2)cc1` (stereo not drawn) [Compound 81]: the Termite-killing effect result is on record as “A (100)”.

As to `O=C(NN=C(Cc1ccc([N+](=O)[O-])cc1)c1ccccc1)Nc1ccc(SC(F)(F)F)cc1` [Compound 14], the Termite-killing effect entry was “A (100)”.

For `O=C(NN=C(Cc1ccccc1)c1cccc(F)c1)Nc1ccc(OC(F)(F)F)cc1` [Compound 32], the Termite-killing effect result is “A (100)”.

For `O=C(NNC(Cc1ccccc1[N+](=O)[O-])c1ccccc1)Nc1ccc(OC(F)(F)F)cc1` (stereo not drawn) [Compound 113], the Termite-killing effect entry is reported as “A (100)”.

For `N#Cc1ccc(CN(NCC(=O)Nc2ccc(Cl)cc2)c2cccc(C(F)(F)F)c2)cc1` [Compound 157], the Termite-killing effect entry is “A (100)”.

The values are drawn from US8361487B1, “Ant controllers and method for application thereof” (BASF Aktiengesellschaft, priority 1999, dated 2013).
